Test results from patent US20230189806A1, “FUNGICIDAL COMBINATIONS” (UPL Corporation Limited, priority 2021, published 2023).

Key:
Rhizoctonia solani = experiment: Seed treatment bio-efficacy against Rhizoctonia solani in inoculated soybean seeds; type: in vivo; conditions: % control of Rhizoctonia solani
Description: This effectiveness of all treatments as measured by percent reduction in the target phytopathogen growth, was also evaluated according to Colby's equation as below. E=X+Y−XY/100 Colby's equation If the actual/observed anti-phytopathogenic efficacy of the ipconazole and thiabendazole combination against Rhizoctonia solani growth exceeds the calculated value, then the activity of the combination is super additive, i.e., a synergistic effect exists. In this case, the efficacy which was actually observed must be greater than the value for the expected efficacy (E) calculated from the abovementioned formula. Methodology: Experiments were carried out to evaluate the bio-efficacy of combinations according to the invention of the present disclosure consisting of ipconazole and thiabendazole against Rhizoctonia solani fungi in soybean seeds. The seeds were inoculated with Rhizoctonia solani. The fungicides were tank mixed and applied as seed treatment as described in table 4 below. Spraying volume was 5 ml/kg.

S. sclerotiorum = experiment: Paper towel roll method, incidence of S. sclerotiorum in inoculated soybean seeds; type: in vivo, Sclerotinia sclerotiorum; conditions: % control of S. sclerotiorum, 14 days at 25° C.
Description: Colby Calculation: This effectiveness of all treatments as measured by percent reduction in the target phytopathogen growth, was also evaluated according to Colby's equation as below. E=X+Y−XY/100 Colby's equation If the actual/observed anti-phytopathogenic efficacy of the ipconazole and thiabendazole combination against S. sclerotiorum exceeds the calculated value, then the activity of the combination is super additive, i.e., a synergistic effect exists. In this case, the efficacy which was actually observed must be greater than the value for the expected efficacy (E) calculated from the abovementioned formula. Methodology: To evaluate the incidence of the pathogen S. sclerotiorum in soybean seeds, the laboratory paper towel roll method was used. A paper towel on a flat surface was placed and moistened with water until it was thoroughly damp. A sample size of a total of 100 soybean seeds in rows were placed on the towel. The seeds were inoculated with the fungal pathogen. The seeds were pre-treated as per the treatments mentioned in the Table 5. A second towel was moistened and placed onto the first paper towel, leaving the seeds sandwiched between the two towels. It was observed that air space in between the two towels was maintained, if not, excessive water should be removed. The two towels were rolled with the seeds in-between and place in a sealed container that retained the moisture. The paper rolls were placed upright and incubated for 14 days in an incubator at 25° C. and at a 12 h photoperiod in plastic bags, which is used to maintain humidity during the incubation. For each treatment, 400 seeds were analyzed, 8 repetitions with 50 seeds each repetition.

Row | Structure (SMILES) | Observed efficacy of demethylation inhibitor fungicide (%) (Rhizoctonia solani; ipconazole 2 g a.i./100 kg seed) | Observed efficacy of demethylation inhibitor fungicide (%) (Rhizoctonia solani; ipconazole 3 g a.i./100 kg seed) | Observed efficacy of demethylation inhibitor fungicide (%) (S. sclerotiorum; ipconazole 5.6 g a.i./100 kg seed) | Observed efficacy of demethylation inhibitor fungicide (%) (S. sclerotiorum; ipconazole 7.78 g a.i./100 kg seed) | Observed efficacy of β-tubulin assembly inhibitor fungicide (%) (Rhizoctonia solani; thiabendazole 12 g a.i./100 kg seeds) | Observed efficacy of β-tubulin assembly inhibitor fungicide (%) (Rhizoctonia solani; thiabendazole 18 g a.i./100 kg seeds) | Observed efficacy of β-tubulin assembly inhibitor fungicide (%) (S. sclerotiorum; thiabendazole 30.9 g a.i./100 kg seed) | Observed efficacy of β-tubulin assembly inhibitor fungicide (%) (S. sclerotiorum; thiabendazole 61.9 g a.i./100 kg seed)
1 | CC(C)C1CCC(Cc2ccc(Cl)cc2)C1(O)Cn1cncn1 (centres unmarked) [Ipconazole] | 49.05 | 67.92 | 21.3 | 6.7 |  |  |  | 
2 | c1ccc2[nH]c(-c3cscn3)nc2c1 [Thiabendazole] |  |  |  |  | 43.39 | 56.60 | 14.6 | 67.4
